Results: patent US11959083B2, “Immunosuppression-reverting oligonucleotides inhibiting the expression of CD39” (Secarna Pharmaceuticals GmbH & Co. KG, priority 2016, dated 2024)
l = locked nucleic acid (LNA); d = 2'-deoxy (DNA)

What was measured:
mCD39 mRNA = mCD39 mRNA knockdown efficacy screen in A20 cells (single dose, gymnotic delivery, QuantiGene Singleplex); assay type: cell-based, mouse; details: 10 μM, three days, normalized to HPRT1
Protocol: FIG. 14-1 and 14-2 show mCD39 mRNA knockdown efficacy of mCD39 antisense oligonucleotides in the murine cancer cell line A20 (mouse B cell lymphoma). A20 cells were treated with a single dose of 10 μM of the respective antisense oligonucleotide. As negative control, cells were treated with neg1, an antisense oligonucleotide having the sequence CGTTTAGGCTATGTACTT (SEQ ID NO:99). Residual mCD39 mRNA expression relative to untreated cells is depicted. Expression values were normalized to expression of the housekeeping gene HPRT1.
In order to analyze the efficacy of mCD39 antisense oligonucleotides with regard to the knockdown of mCD39 mRNA expression in a cancer cell line, A20 (mouse B cell lymphoma, ATCC) cells were treated with a single dose (concentration: 10 μM without addition of any transfection reagent; this process is called gymnotic delivery) of the respective antisense oligonucleotide as indicated in FIG. 14. As control, cells were treated with neg1, an antisense oligonucleotide having the sequence CGTTTAGGCTATGTACTT (SEQ ID NO:99). mCD39 and HPRT1 mRNA expression was analyzed after three days using the QuantiGene Singleplex assay (Affymetrix) and mCD39 expression values were normalized to HPRT1 expression values.

hCD39 mRNA [1] = assay: hCD39 mRNA knockdown efficacy screen in A-172 cells (single dose, gymnotic delivery, QuantiGene Singleplex); assay type: cell-based, human; details: 10 μM, 3 days; for Residual hCD39 mRNA expression relative to untreated cells (set as 1): third screening round
Procedure, shortened: (§1)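 Antisense oligonucleotides given once at 10 μM without transfection reagent (gymnotic) to HDLM-2 or A-172 cells for 3 days. hCD39 mRNA measured by QuantiGene Singleplex, normalized to HPRT1 and expressed relative to untreated cells; triplicate means.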

hCD39 mRNA [2] = assay: IC50 determination / concentration-dependent hCD39 mRNA knockdown in HDLM-2 cells; assay type: cell-based, human; details: for mRNA inhibition: HDLM-2, 3 days; for IC50: HDLM-2 cells, hCD39 mRNA, 3 days
Protocol: HDLM-2 cells were treated for 3 days with the indicated concentration of the respective antisense oligonucleotide. Residual hCD39 expression is depicted compared to untreated control cells. hCD39 mRNA expression values were normalized to expression of the housekeeping gene HPRT1.
The antisense oligonucleotide A04040H (SEQ ID No. 3) that had shown potent activity in the first and second screening round was used as reference. HDLM-2 cells treated for 3 days with the indicated concentrations of the respective antisense oligonucleotide. hCD39 mRNA expression values were normalized to expression of the housekeeping gene HPRT1. Residual hCD39 mRNA expression relative to untreated cells (set as 100) is depicted. Depicted is the mean of triplicate wells+/−SD.
In a second experiment the concentration-dependency of effects and the IC50 values of hCD39 antisense oligonucleotides A04010H (SEQ ID No.14), A04016H (SEQ ID No.20), A04017H (SEQ ID No.21), A04020H (SEQ ID No. 24) and A04026H (SEQ ID No.30) were tested. […] HDLM-2 cells were treated with titrated amounts of the respective antisense oligonucleotide (concentrations: 10 μM, 3.3 μM, 1.1 μM, 370 nM, 120 nM, 41 nM, 14 nM, 4.5 nM). hCD39 mRNA expression was analyzed after three days of treatment. FIG. 5 and Table 9 depicts the concentration-dependent reduction of hCD39 mRNA expression by the selected hCD39 antisense oligonucleotides.
The hCD39 antisense oligonucleotides A04051H (SEQ ID No.88), A04052H (SEQ ID No.89), A04053H ([…]), A04056H (SEQ ID No.92), A04059H (SEQ ID No.94), A04060H (SEQ ID No.95), and A04061H (SEQ ID No.96) had shown potent single-dose activity in both HDLM-2 and A-172 cells. […] The antisense oligonucleotide A04040H that had shown potent activity in the first screening round was used as reference. hCD39 mRNA expression was analyzed after 3 days of treatment. FIG. 7 depicts the concentration-dependent reduction of hCD39 expression by hCD39 antisense oligonucleotides.

hCD39 mRNA [3] = assay: hCD39 mRNA knockdown efficacy screen in HDLM-2 cells (single dose, gymnotic delivery, QuantiGene Singleplex); assay type: cell-based, human; details: 10 μM, 3 days; for Residual hCD39 mRNA expression relative to untreated cells (set as 1): third screening round
Procedure, shortened: as §1

[4] = third screening round (Table 12)
[5] = second screening round, normalized to HPRT1

Substance: +C*+C*+A*C*T*T*G*T*A*G*A*T*G*+T*+A*+C (antisense CCACTTGTAGATGTAC; sugars from the 5' end l3 d10 l3, all phosphorothioate, methylation of C not given here) [A04010MR]
- Relative mCD39 mRNA expression (compared to non-treated cells) (mCD39 mRNA): 0.25

Substance: +A*+C*+A*T*T*T*C*T*T*A*C*T*C*+G*+T*+T (antisense ACATTTCTTACTCGTT; sugars from the 5' end l3 d10 l3, all phosphorothioate, methylation of C not given here) [A04022MR]
- Relative mCD39 mRNA expression (compared to non-treated cells) (mCD39 mRNA): 0.20

Substance: +T*+T*+C*G*T*A*G*T*C*T*C*C*A*G*+T*+G*+C (antisense TTCGTAGTCTCCAGTGC; sugars from the 5' end l3 d11 l3, all phosphorothioate, methylation of C not given here) [A04028MR]
- Relative mCD39 mRNA expression (compared to non-treated cells) (mCD39 mRNA): 0.02

Substance: +C*+C*+C*A*G*C*A*G*A*T*A*G*T*T*+A*+A*+T (antisense CCCAGCAGATAGTTAAT; sugars from the 5' end l3 d11 l3, all phosphorothioate, methylation of C not given here) [A04024MR]
- Relative mCD39 mRNA expression (compared to non-treated cells) (mCD39 mRNA): 0.35

Substance: +T*+G*+T*T*C*G*T*A*G*T*C*T*C*C*+A*+G*+T (antisense TGTTCGTAGTCTCCAGT; sugars from the 5' end l3 d11 l3, all phosphorothioate, methylation of C not given here) [A04029MR]
- Relative mCD39 mRNA expression (compared to non-treated cells) (mCD39 mRNA): 0.11

Substance: +G*+A*+T*C*C*A*A*A*G*C*G*C*+C*+A*+A (antisense GATCCAAAGCGCCAA; sugars from the 5' end l3 d9 l3, all phosphorothioate, methylation of C not given here) [A04002MR]
- Relative mCD39 mRNA expression (compared to non-treated cells) (mCD39 mRNA): 0.06

Substance: +T*+C*+G*T*A*G*T*C*T*C*C*A*G*T*+G*+C*+C (antisense TCGTAGTCTCCAGTGCC; sugars from the 5' end l3 d11 l3, all phosphorothioate, methylation of C not given here) [A04027MR]
- Relative mCD39 mRNA expression (compared to non-treated cells) (mCD39 mRNA): 0.03

Substance: +C*+G*+T*T*G*C*T*G*T*C*T*T*T*+G*+A*+T (antisense CGTTGCTGTCTTTGAT; sugars from the 5' end l3 d10 l3, all phosphorothioate, methylation of C not given here) [A04018MR]
- Relative mCD39 mRNA expression (compared to non-treated cells) (mCD39 mRNA): 0.18

Substance: +C*+C*+T*A*G*T*T*G*T*G*T*A*T*+A*+C*+T (antisense CCTAGTTGTGTATACT; sugars from the 5' end l3 d10 l3, all phosphorothioate, methylation of C not given here) [A04021MR]
- Relative mCD39 mRNA expression (compared to non-treated cells) (mCD39 mRNA): 0.35

Substance: +G*+G*+T*G*G*C*A*C*T*G*T*T*+C*+G*+T (antisense GGTGGCACTGTTCGT; sugars from the 5' end l3 d9 l3, all phosphorothioate, methylation of C not given here) [A04005MR]
- Relative mCD39 mRNA expression (compared to non-treated cells) (mCD39 mRNA): 0.15

Substance: +G*+C*+C*C*A*G*C*A*G*A*T*A*G*T*+T*+A*+A (antisense GCCCAGCAGATAGTTAA; sugars from the 5' end l3 d11 l3, all phosphorothioate, methylation of C not given here) [A04025MR]
- Relative mCD39 mRNA expression (compared to non-treated cells) (mCD39 mRNA): 0.35

Substance: +T*+G*+G*C*A*C*T*G*T*T*C*G*T*+A*+G*+T (antisense TGGCACTGTTCGTAGT; sugars from the 5' end l3 d10 l3, all phosphorothioate, methylation of C not given here) [A04015MR]
- Relative mCD39 mRNA expression (compared to non-treated cells) (mCD39 mRNA): 0.32

Substance: +C*+A*+C*A*T*T*A*G*C*T*G*C*+A*+C*+G (antisense CACATTAGCTGCACG; sugars from the 5' end l3 d9 l3, all phosphorothioate, methylation of C not given here) [A04007MR]
- Relative mCD39 mRNA expression (compared to non-treated cells) (mCD39 mRNA): 0.07

Substance: +T*+A*+C*G*T*T*C*A*C*T*A*C*C*T*+T*+C*+T (antisense TACGTTCACTACCTTCT; sugars from the 5' end l3 d11 l3, all phosphorothioate, methylation of C not given here) [A04052H]
- Residual hCD39 mRNA expression relative to untreated cells (set as 1) (hCD39 mRNA [1]): 0.25
- mRNA inhibition (hCD39 mRNA [2]; 0.45 nM, Table 12): 24.52%
- mRNA inhibition (hCD39 mRNA [2]; 1.3 nM, Table 12): 25.80%
- mRNA inhibition (hCD39 mRNA [2]; 4 nM, Table 12): 9.03%
- mRNA inhibition (hCD39 mRNA [2]; 12 nM, Table 12): 31.25%
- mRNA inhibition (hCD39 mRNA [2]; 40 nM, Table 12): 49.21%
- mRNA inhibition (hCD39 mRNA [2]; 110 nM, Table 12): 75.30%
- mRNA inhibition (hCD39 mRNA [2]; 330 nM, Table 12): 88.35%
- mRNA inhibition (hCD39 mRNA [2]; 1000 nM, Table 12): 94.72%
- IC50 (hCD39 mRNA [2]; [4]): 0.054 µM
- Residual hCD39 mRNA expression relative to untreated cells (set as 1) (hCD39 mRNA [3]): 0.00

Substance: +G*+G*+T*T*T*G*T*G*T*G*A*G*A*G*C*+T (antisense GGTTTGTGTGAGAGCT; sugars from the 5' end l3 d12 l1, all phosphorothioate, methylation of C not given here) [A04060H]
- Residual hCD39 mRNA expression relative to untreated cells (set as 1) (hCD39 mRNA [1]): 0.08
- mRNA inhibition (hCD39 mRNA [2]; 0.45 nM, Table 12): 0.00%
- mRNA inhibition (hCD39 mRNA [2]; 1.3 nM, Table 12): 0.00%
- mRNA inhibition (hCD39 mRNA [2]; 4 nM, Table 12): 0.00%
- mRNA inhibition (hCD39 mRNA [2]; 12 nM, Table 12): 0.00%
- mRNA inhibition (hCD39 mRNA [2]; 40 nM, Table 12): 49.14%
- mRNA inhibition (hCD39 mRNA [2]; 110 nM, Table 12): 88.34%
- mRNA inhibition (hCD39 mRNA [2]; 330 nM, Table 12): 96.71%
- mRNA inhibition (hCD39 mRNA [2]; 1000 nM, Table 12): 97.82%
- IC50 (hCD39 mRNA [2]; [4]): 0.0205 µM
- Residual hCD39 mRNA expression relative to untreated cells (set as 1) (hCD39 mRNA [3]): 0.01

Substance: +C*+T*+T*G*A*A*C*A*C*T*G*C*+G*+A*+T (antisense CTTGAACACTGCGAT; sugars from the 5' end l3 d9 l3, all phosphorothioate, methylation of C not given here) [A04017H]
- Mean hCD39 mRNA expression (relative to untreated cells set as 1) (hCD39 mRNA [1]; first screening round, normalized to HPRT1): 0.11
- Relative hCD39 mRNA expression (compared to non-treated cells) (hCD39 mRNA [1]; [5]): 0.11
- mRNA inhibition (hCD39 mRNA [2]; 0.0045 μM, Table 9): 33.85%
- mRNA inhibition (hCD39 mRNA [2]; 0.013 μM, Table 9): 49.62%
- mRNA inhibition (hCD39 mRNA [2]; 0.04 μM, Table 9): 62.92%
- mRNA inhibition (hCD39 mRNA [2]; 0.12 μM, Table 9): 79.03%
- mRNA inhibition (hCD39 mRNA [2]; 0.4 μM, Table 9): 91.63%
- mRNA inhibition (hCD39 mRNA [2]; 1.1 μM, Table 9): 97.05%
- mRNA inhibition (hCD39 mRNA [2]; 3.3 μM, Table 9): 98.95%
- mRNA inhibition (hCD39 mRNA [2]; 10 μM, Table 9): 99.37%
- IC50 (hCD39 mRNA [2]; second screening round (Table 9)): 0.0331 µM
- Mean hCD39 mRNA expression normalized to HPRT1 relative to untreated control = 1 (hCD39 mRNA [3]; first screening round): 0.11
- Relative hCD39 mRNA expression (compared to non-treated cells) (hCD39 mRNA [3]; [5]): 0.11

Substance: +T*+A*+C*G*T*T*C*A*C*T*A*C*C*T*+T*C*+T (antisense TACGTTCACTACCTTCT; sugars from the 5' end l3 d11 l1 d1 l1, all phosphorothioate, methylation of C not given here) [A04053H]
- Residual hCD39 mRNA expression relative to untreated cells (set as 1) (hCD39 mRNA [1]): 0.31
- mRNA inhibition (hCD39 mRNA [2]; 0.45 nM, Table 12): 2.07%
- mRNA inhibition (hCD39 mRNA [2]; 1.3 nM, Table 12): 17.51%
- mRNA inhibition (hCD39 mRNA [2]; 4 nM, Table 12): 9.81%
- mRNA inhibition (hCD39 mRNA [2]; 12 nM, Table 12): 26.67%
- mRNA inhibition (hCD39 mRNA [2]; 40 nM, Table 12): 37.75%
- mRNA inhibition (hCD39 mRNA [2]; 110 nM, Table 12): 66.64%
- mRNA inhibition (hCD39 mRNA [2]; 330 nM, Table 12): 85.19%
- mRNA inhibition (hCD39 mRNA [2]; 1000 nM, Table 12): 92.69%
- IC50 (hCD39 mRNA [2]; [4]): 0.0676 µM
- Residual hCD39 mRNA expression relative to untreated cells (set as 1) (hCD39 mRNA [3]): 0.01
